{"source": "paper PMC7565640", "about": "(Journal of Virology, 2020)", "key": {"SARS-CoV-2 [1]": {"tested_on": "SARS-CoV-2", "type": "cell-based", "conditions": "read-out: IC50 (avg)"}, "[2]": {"tested_on": "clathrin-mediated endocytosis", "conditions": "cited from earlier work"}, "SARS-CoV-2 [3]": {"tested_on": "SARS-CoV-2", "type": "cell-based"}, "SARS-CoV-2 [4]": {"tested_on": "SARS-CoV-2", "type": "cell-based", "remark": "listed apart in the source"}, "MERS-CoV spike": {"tested_on": "MERS-CoV spike", "conditions": "cited from earlier work"}, "SARS-CoV spike": {"tested_on": "SARS-CoV spike", "conditions": "cited from earlier work"}, "Vero E6 cells": {"tested_on": "Vero E6 cells", "conditions": "read-out: CC50 (avg); 3 days"}}, "note": "Several values for one entry are separate records, joined by “and”; a condition that tells them apart may be missing. Equal values may be shown once. Where a name gives a salt, the structure may show the parent alone."}
{"smiles": "CC(CN1c2ccccc2Sc2ccccc21)N(C)C", "note": "(centres unmarked) [Promethazine hydrochloride]", "values": [{"measurement": "IC50", "setting": "SARS-CoV-2 [1]", "result": 10.4, "unit": "µM"}]}
{"smiles": "CN(C)CCCN1c2ccccc2Sc2ccc(Cl)cc21", "note": "[Chlorpromazine hydrochloride]", "values": [{"measurement": "clathrin-mediated endocytosis", "setting": "[2]", "result": "inhibit"}, {"measurement": "infectious viral particle production of SARS-CoV-2 (TCID50)", "setting": "SARS-CoV-2 [3]", "result": "can inhibit"}, {"measurement": "IC50", "setting": "SARS-CoV-2 [1]", "result": 4.03, "unit": "µM"}]}
{"smiles": "CCN(CC)CCCC(C)Nc1ccnc2cc(Cl)ccc12", "note": "(centres unmarked) [Chloroquine phosphate]", "values": [{"measurement": "production of SARS-CoV-2 N and RdRp mRNA", "setting": "SARS-CoV-2 [4]", "result": "inhibit production"}, {"measurement": "infectious viral particle production of SARS-CoV-2 (TCID50)", "setting": "SARS-CoV-2 [3]", "result": "can inhibit"}, {"measurement": "IC50", "setting": "SARS-CoV-2 [1]", "result": 46.8, "unit": "µM"}]}
{"smiles": "CCN(CC)Cc1cc(Nc2ccnc3cc(Cl)ccc23)ccc1O", "note": "[Amodiaquine dihydrochloride dihydrate]", "values": [{"measurement": "IC50", "setting": "SARS-CoV-2 [1]", "result": "2.59 µM and 4.94 µM"}]}
{"smiles": "CC(C)N1CCN(c2ccc(OCC3COC(Cn4cncn4)(c4ccc(Cl)cc4Cl)O3)cc2)CC1", "note": "(centres unmarked) [Terconazole]", "values": [{"measurement": "IC50", "setting": "SARS-CoV-2 [1]", "result": 16.1, "unit": "µM"}]}
{"smiles": "CCN(CCO)CCCC(C)Nc1ccnc2cc(Cl)ccc12", "note": "(centres unmarked) [Hydroxychloroquine sulfate]", "values": [{"measurement": "production of SARS-CoV-2 N and RdRp mRNA", "setting": "SARS-CoV-2 [4]", "result": "inhibit production"}, {"measurement": "infectious viral particle production of SARS-CoV-2 (TCID50)", "setting": "SARS-CoV-2 [3]", "result": "can inhibit"}, {"measurement": "time-of-addition: inhibitory activity on infectious-virus production", "setting": "SARS-CoV-2 [3]; 24 h", "result": "some reduction in inhibitory activity"}, {"measurement": "IC50", "setting": "SARS-CoV-2 [1]", "result": 11.2, "unit": "µM"}]}
{"smiles": "Cc1ccc(NC(=O)c2ccc(CN3CCN(C)CC3)cc2)cc1Nc1nccc(-c2cccnc2)n1", "note": "[Imatinib mesylate]", "values": [{"measurement": "MERS-CoV spike-mediated entry", "setting": "MERS-CoV spike", "result": "inhibits"}, {"measurement": "SARS-CoV spike-mediated entry", "setting": "SARS-CoV spike", "result": "inhibits"}]}
{"smiles": "CCN(CC)Cc1cc(Nc2ccnc3cc(Cl)ccc23)ccc1O", "note": "[Amodiaquine hydrochloride]", "values": [{"measurement": "CC50", "setting": "Vero E6 cells", "result": "> 38.6", "unit": "µM"}]}
{"smiles": "CCN(CC)CCOc1ccc(C(O)(Cc2ccc(Cl)cc2)c2ccc(C)cc2)cc1", "note": "(centres unmarked) [Triparanol]", "values": [{"measurement": "IC50", "setting": "SARS-CoV-2 [1]", "result": 6.41, "unit": "µM"}]}
{"smiles": "O=C1NCN(c2ccccc2)C12CCN(CCCC(c1ccc(F)cc1)c1ccc(F)cc1)CC2", "note": "[Fluspirilene]", "values": [{"measurement": "IC50", "setting": "SARS-CoV-2 [1]", "result": 5.32, "unit": "µM"}]}
{"smiles": "CCSc1ccc2c(c1)N(CCCN1CCN(C)CC1)c1ccccc1S2", "note": "[Thiethylperazine maleate]", "values": [{"measurement": "IC50", "setting": "SARS-CoV-2 [1]", "result": 8.02, "unit": "µM"}]}
{"smiles": "OC(c1cc(C(F)(F)F)nc2c(C(F)(F)F)cccc12)C1CCCCN1", "note": "(centres unmarked) [Mefloquine hydrochloride]", "values": [{"measurement": "IC50", "setting": "SARS-CoV-2 [1]", "result": 8.06, "unit": "µM"}]}
